Among the data in ChEMBL document CHEMBL4421736, “INHIBITORS OF SARM1 NADase ACTIVITY AND USES THEREOF” (2018) are inhibition and Activity values, retold here.

Activity calls are given as the source filed them. The calls are words filed in the database; no cut-off is given here.

Assay type in all cases: cell-based
Assay [1] concerns the target T1, NAD(+) hydrolase SARM1 (Mus musculus) (UniProt Q6PDS3).
T1 sequence (whole entry): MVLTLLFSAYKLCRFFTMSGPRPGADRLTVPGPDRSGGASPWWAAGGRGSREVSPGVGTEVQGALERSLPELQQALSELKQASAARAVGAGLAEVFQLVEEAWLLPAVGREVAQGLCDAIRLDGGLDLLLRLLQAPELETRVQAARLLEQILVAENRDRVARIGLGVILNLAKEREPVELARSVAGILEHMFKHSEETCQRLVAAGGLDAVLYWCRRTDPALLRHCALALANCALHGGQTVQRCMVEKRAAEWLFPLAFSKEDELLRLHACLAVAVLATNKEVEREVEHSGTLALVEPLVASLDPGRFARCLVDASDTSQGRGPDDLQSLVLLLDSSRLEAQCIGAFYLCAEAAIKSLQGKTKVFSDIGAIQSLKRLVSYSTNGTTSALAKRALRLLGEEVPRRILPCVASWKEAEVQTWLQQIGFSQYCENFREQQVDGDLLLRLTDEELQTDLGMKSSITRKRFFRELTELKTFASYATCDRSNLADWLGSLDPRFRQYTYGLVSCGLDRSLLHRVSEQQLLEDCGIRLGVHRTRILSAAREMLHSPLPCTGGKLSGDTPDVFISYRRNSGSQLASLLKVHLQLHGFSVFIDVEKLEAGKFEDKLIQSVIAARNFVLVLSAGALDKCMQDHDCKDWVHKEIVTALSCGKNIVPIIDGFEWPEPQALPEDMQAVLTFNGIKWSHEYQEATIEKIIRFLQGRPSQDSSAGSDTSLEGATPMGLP
As to the kind of experiment: Inhibition of SARM1 in CD1 mouse DRG cells assessed as inhibition of axon degeneration by measuring reduction in NAD+ consumption rate at 5 uM added 30 mins prior to D4-Nam addition and measured 4 hrs post D4-Nam addition by LC-MS/MS analysis.

Assay [2] addresses T2, NAD(+) hydrolase SARM1 (Homo sapiens) (UniProt Q6SZW1).
T2 sequence (whole entry): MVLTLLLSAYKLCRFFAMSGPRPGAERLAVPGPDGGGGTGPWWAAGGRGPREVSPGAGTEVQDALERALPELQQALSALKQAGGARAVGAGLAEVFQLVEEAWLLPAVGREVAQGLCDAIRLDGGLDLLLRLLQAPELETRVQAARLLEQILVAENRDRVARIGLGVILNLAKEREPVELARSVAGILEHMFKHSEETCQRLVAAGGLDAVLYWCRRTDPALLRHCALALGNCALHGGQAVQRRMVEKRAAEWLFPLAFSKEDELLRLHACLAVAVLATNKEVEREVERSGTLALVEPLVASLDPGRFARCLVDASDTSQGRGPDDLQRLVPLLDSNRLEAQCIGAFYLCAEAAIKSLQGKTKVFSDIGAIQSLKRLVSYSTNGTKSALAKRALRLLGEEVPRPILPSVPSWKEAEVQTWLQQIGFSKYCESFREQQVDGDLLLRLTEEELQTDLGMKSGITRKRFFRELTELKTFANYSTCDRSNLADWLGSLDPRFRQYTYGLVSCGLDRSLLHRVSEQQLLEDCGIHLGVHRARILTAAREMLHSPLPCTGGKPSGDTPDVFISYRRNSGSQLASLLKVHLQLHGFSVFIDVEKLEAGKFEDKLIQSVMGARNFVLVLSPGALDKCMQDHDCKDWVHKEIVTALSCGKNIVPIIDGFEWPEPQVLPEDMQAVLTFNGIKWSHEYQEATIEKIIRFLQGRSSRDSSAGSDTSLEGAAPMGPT
As to the kind of experiment: Substrate activity at StrepTag-tagged human SARM1 TIR (561 to 724 residues) expressed in HEK293T cells assessed as increase in NADase activity in presence of NAD+ incubated for 60 mins by HPLC analysis.

The target of assay [3] is T2, NAD(+) hydrolase SARM1 (Homo sapiens). The assay is described as follows: Inhibition of StrepTag-tagged human SARM1 TIR (561 to 724 residues) expressed in NRK1-HEK293T cells assessed as reduction in NADase activity by measuring NAD consumption at 150 uM pre-incubated up to 120 mins before NAD+ addition and further incubated for 60 mins by HPLC analysis relative to control. Also noted: scale not given: the % may be the effect or the level left.

For assay [4] the target is unchanged. As to the kind of experiment: Inhibition of StrepTag-tagged human SARM1 TIR (561 to 724 residues) expressed in NRK1-HEK293T cells assessed as reduction in NADase activity by measuring ADPR production at 150 uM pre-incubated up to 120 mins before NAD+ addition and further incubated for 60 mins by HPLC analysis. Also on record: scale not given: the % may be the effect or the level left.

Assay [5] shares this target. The assay is described as follows: Inhibition of StrepTag-tagged human SARM1 TIR (561 to 724 residues) expressed in HEK293T cells assessed as reduction in NADase activity at 5 uM in presence of NAD+ incubated for 60 mins by LC-MS/MS analysis.
The target of assay [6] is T1, NAD(+) hydrolase SARM1 (Mus musculus). As to the kind of experiment: Inhibition of SARM1 in CD1 mouse DRG cells assessed as inhibition of axon degeneration by measuring reduction in NAD+ consumption rate added 30 mins prior to D4-Nam addition and measured 4 hrs post D4-Nam addition by LC-MS/MS analysis.
Assay [7] shares this target. As to the kind of experiment: Inhibition of SARM1 in CD1 mouse DRG cells assessed as inhibition of axon degeneration measured during 6 to 24 hrs by drop culture assay.
Assay [8] has the same target. The assay is described as follows: Inhibition of SARM1 in CD1 mouse DRG cells assessed as inhibition of axon degeneration measured during 6 to 24 hrs by SEM micrography.
In assay [9] the target is T2, NAD(+) hydrolase SARM1 (Homo sapiens). The assay is described as follows: Inhibition of StrepTag-tagged human SARM1 TIR (561 to 724 residues) expressed in HEK293T cells assessed as reduction in NADase activity at 5 uM in presence of NAD+ incubated for 60 mins by HPLC analysis.
Assay [10] has the same target. As to the kind of experiment: Substrate activity at StrepTag-tagged human SARM1 TIR (561 to 724 residues) expressed in HEK293T cells assessed as increase in NADase activity at 100 uM in presence of NAD+ incubated for 60 mins by HPLC analysis.
Assay [11] has the same target. As to the kind of experiment: Inhibition of StrepTag-tagged human SARM1 TIR (561 to 724 residues) expressed in HEK293T cells in presence of NAD+ incubated for 60 mins by chemiluminescence based NAD+ Glo assay.
Assay [12] shares this target. As to the kind of experiment: Inhibition of StrepTag-tagged human SARM1 TIR (561 to 724 residues) expressed in HEK293T cells assessed as reduction in NADase activity at 1 mM in presence of NAD+ incubated for 60 mins by HPLC analysis.

As to `Cc1cccc2c1c1ccc3c(c1n2C)C(=O)C=CC3=O`, the inhibition entry in assay [1] was “Active”. On to `NC(=O)c1ccccc1`, for which, in assay [2], the outcome was inactive. On to `COc1ccc2c(c1)nc([S+]([O-])Cc1ncc(C)c(OC)c1C)n2C` (stereo unspecified), for which the Activity in [3] and in assay [4] was > 75% in each case. Consider `CCOc1ccc(NC(=O)C2CCCN(C)C2)cc1` (stereo unspecified), for which the inhibition entry in [1] is “Active”. `Cc1c(OCC(F)(F)F)ccnc1CS(=O)(=O)c1nc2ccccc2[nH]1`: the Activity in [3] and in assay [4] was > 75% each time. Turning to `COc1cnc2[nH]c([S+]([O-])Cc3ncc(C)c(OC)c3C)nc2c1` (stereo unspecified), the Activity was > 75% in assay [3] and 50 to 75% in assay [4]. With `NC(=S)c1cccnc1`, in [2], the result was inactive.

On to `COC(=O)CC1(C(=O)OC)Nc2cc(Cl)c(Cl)cc2S(=O)(=O)N1O` (stereo unspecified), for which, in assay [1], the inhibition result is “Active”. Consider `Cc1ccc2c(c1)c1ccc3c(c1n2C)C(=O)C=CC3=O`, for which the inhibition entry in assay [1] was “Active”. Same read-out and setting: in the case of `O=C1NC(=O)C(=Cc2csc3ccccc23)C(=O)N1` it was “Active”. Consider `CN(C)c1n/c(=N/Cc2ccco2)ss1`, for which the inhibition result in assay [5], in [1], in assay [7] and in [8] was “Active” each time. For the same molecule, the inhibition result in [6] was “Dose-dependent effect”. `O=C1N=C(c2ccccc2)C(c2ccccc2)N1` (stereo unspecified): the inhibition entry in [1] is “Active”. `Cc1c(OCC(F)(F)F)ccnc1CSc1nc2ccccc2[nH]1`: the Activity in assay [3] and in assay [4] was > 75% throughout. As to `Cc1cc(O)c(-c2cc(O)c(C)cc2O)cc1O`, the inhibition entry in assay [1] is “Active”. For `COc1ccc2[nH]c([S+]([O-])Cc3ncc(C)c(OC)c3C)nc2c1` (stereo unspecified), the inhibition entry in assay [9] is “Active”. For `Cc1cnc(C[S@@+]([O-])c2nc3ccccc3[nH]2)c(C)c1OCC(F)(F)F`, the Activity in [3] was > 75%; in assay [4], < 50%. Consider `CC1=C(O)C(=O)C=C2C1=CC=C1[C@@]2(C)CC[C@@]2(C)[C@@H]3C[C@](C)(C(=O)O)CC[C@]3(C)CC[C@]12C`, for which the inhibition entry in assay [1] is “Active”.

Regarding `Oc1cc(CNC2CCCCC2)c(O)cc1CNC1CCCCC1`, the inhibition entry in [1] is “Active”.

For `CC1(C)CC[C@]2(C(=O)n3ccnc3)CC[C@]3(C)[C@H](C(=O)C=C4[C@@]5(C)C=C(C#N)C(=O)C(C)(C)[C@@H]5CC[C@]43C)[C@@H]2C1`, the inhibition entry in assay [1] is “Active”. For the molecule `CC(=O)c1cccnc1`, in [2], the result was inactive. Take `Cc1ccc([S+]([O-])c2ccc([N+](=O)[O-])c3nonc23)cc1` (stereo unspecified): in [1], the inhibition entry was “Active”. In the case of `Cc1c(OCC(F)(F)F)ccnc1C[S+]([O-])c1nc2ccccc2[nH]1` (stereo unspecified), the inhibition result in assay [9] is “Active”. Same read-out and setting: in the case of `COc1ccnc(C[S+]([O-])c2nc3cc(OC(F)F)ccc3[nH]2)c1OC` (stereo unspecified) it was “Active”. Take `O=[N+]([O-])c1ccc(Sc2cccc[n+]2[O-])c2nonc12`: the inhibition result in assay [1] is “Active”.

Consider `COc1ccc2c(c1)c1ccc3c(c1n2C)C(=O)C=CC3=O`, for which, in assay [1], the inhibition entry is “Active”. Take `CCOC(=O)/C(C#N)=C1\SS/C(=C(/C#N)C(=O)OCC)S1`: the inhibition result in [1] was “Active”. For the molecule `Cc1c(OCC(F)(F)F)ccnc1C[S@@+]([O-])c1nc2ccccc2[nH]1`, the inhibition entry in assay [9] is “Active”. The same measure, in the same setting: in the case of `COCCCOc1ccnc(C[S+]([O-])c2nc3ccccc3[nH]2)c1C` (stereo unspecified) it was “Active”.

As to `COc1ccc2[nH]c([S+]([O-])Cc3ncc(C)c(OC)c3C)nc2n1` (stereo unspecified), in [9], the inhibition result was “Active”. The values for the Activity in assay [3] and in assay [4] were 50 to 75% and < 50%, respectively.

As to `NC(=O)C1=CN([C@@H]2O[C@H](COP(=O)(O)OP(=O)(O)OC[C@H]3O[C@@H](n4cnc5c(N)ncnc54)[C@H](OP(=O)(O)O)[C@@H]3O)[C@@H](O)[C@H]2O)C=CC1`, the result in assay [2] and in [10] was Active.

Turning to `CN(C)c1n/c(=N/c2cccc(Cl)c2)ss1`, the inhibition entry in [11], in [5] and in assay [1] was “Active” in each case. As to `NC(=O)c1ccc(N)nc1`, in assay [2], the result was inactive. With `NC(=O)C1CCCc2c1[nH]c1ccc(Cl)cc21` (stereo unspecified), in assay [12], the inhibition result is “Active”. In assay [2], the result was inactive. Turning to `Cn1c2ccccc2c2ccc3c(c21)C(=O)C=CC3=O`, the inhibition result in assay [1] is “Active”.

Consider `NC(=O)C1=CN([C@@H]2O[C@H](COP(=O)(O)OP(=O)(O)OC[C@H]3O[C@@H](n4cnc5c4ncn4ccnc54)[C@H](O)[C@@H]3O)[C@@H](O)[C@H]2O)CC=C1`, for which the inhibition entry in assay [12] is “Active”. Further, the outcome in assay [2] was inactive. On to `O=C1NC(=O)C(=Cc2ccc3ccccc3c2)C(=O)N1`, for which, in assay [1], the inhibition entry is “Active”.

As for `CCN(CC)c1ccc(C=C2C(=O)NC(=S)NC2=O)cc1`, the inhibition result in assay [1] is “Active”.

As for `NC(=O)C1=CN([C@@H]2O[C@H](COP(=O)(O)OP(=O)(O)OC[C@H]3O[C@@H](n4cnc5c(=O)[nH]cnc54)[C@H](O)[C@@H]3O)[C@@H](O)[C@H]2O)CC=C1`, in assay [2], the result was Active. Consider `O=Cc1cccnc1`, for which, in [2], the result was inactive. As to `O=C(c1ccccc1)C1C(c2ccccc2)C1[N+](=O)[O-]` (stereo unspecified), in assay [1], the inhibition result was “Active”.
